Measured values published in US9173935B2, “Phospholipid drug analogs” (Telormedix SA, priority 2010, dated 2015).
pEC50, pIC50: −log10 of the molar value. Like-named read-outs stand apart in the source and are kept apart here.

Columns and labels:
[1] = system: AY-27 rat bladder cancer cell-line
[2] = system: Raw264.7 mouse macrophage cell line; assay: IL-6 and TNF-alpha secretion in Raw264.7 cells (ELISA); type: cell-based; details: 24 hours treatment, 7 doses
Protocol: EC50 values were determined for control and each drug candidate for IL-6 and TNF-alpha secretion. […] The cells were plated in 96 well plates and treated with TLR7 agonists for 24 hours in 7 doses. The conditioned media was removed after 24 hours for ELISA analyses. The cells were subsequently assayed for viability using the XTT assay according to the guidelines from the supplier. […] The experiment was performed in quadruplicate wells for each testing series, and the supernatant pooled and measured by ELISA in triplicates. Concentrations of IL-6 and TNF-alpha were determined by ELISA from R&D Systems using the Microsoft Excel Software. The results were analyzed in Graph Pad Prism in order to prepare dose-response curves, and for determination of EC50 values.

human PBMCs = assay: IL-6 secretion in human PBMCs, two batches of Compound A and SC12; type: cell-based; details: 24 h, 4 doses
Protocol: PBMCs were purified from two donors and plated into 96 well plates at 2×10^5 cells/well in RPMI media including human 2% heat inactivated AB serum, glutamine, Pen-strep and R-mercapto-ethanol. The cells were treated with TLR7 agonists for 24 h in 4 doses. The conditioned media was removed for ELISA analyses for IL-6, and the EC50 value determined for each compound and each batch.
All compounds were tested in four concentrations (10-1-0.1-0.01 micromolar).
Concentrations of IL-6 were determined by ELISA from R&D Systems using the Microsoft Excel software. The results were analyzed in Graph Pad Prism in order to prepare dose-response curves, and for determination of EC50 values.

[3] = system: Escherichia coli WP2 uvrA; assay: Bacterial mutation assay, Escherichia coli; details: absence or presence of S9 metabolism
Protocol: (§1) The five tester strains TA1535, TA1537, TA98, TA100 and WP2 uvrA were used. Experiments were performed both in the absence and presence of metabolic activation, using liver S9 fraction from rats pre-treated with phenobarbitone and betanaphthoflavone. SC12 was used as a solution in dimethylsulfoxide (DMSO).

CYP2C8 = CYP2C8 (Homo sapiens (Human), UniProt P10632); assay: Fluorescent High Throughput P450 assay, CYP2C8; type: biochemical; details: substrate DBF; head of Table 31 prints CYP2CB; read-out: CYP2C8 IC50 (Mean ± S.D.)
Chain of CYP2C8 (P10632 whole entry, looked up): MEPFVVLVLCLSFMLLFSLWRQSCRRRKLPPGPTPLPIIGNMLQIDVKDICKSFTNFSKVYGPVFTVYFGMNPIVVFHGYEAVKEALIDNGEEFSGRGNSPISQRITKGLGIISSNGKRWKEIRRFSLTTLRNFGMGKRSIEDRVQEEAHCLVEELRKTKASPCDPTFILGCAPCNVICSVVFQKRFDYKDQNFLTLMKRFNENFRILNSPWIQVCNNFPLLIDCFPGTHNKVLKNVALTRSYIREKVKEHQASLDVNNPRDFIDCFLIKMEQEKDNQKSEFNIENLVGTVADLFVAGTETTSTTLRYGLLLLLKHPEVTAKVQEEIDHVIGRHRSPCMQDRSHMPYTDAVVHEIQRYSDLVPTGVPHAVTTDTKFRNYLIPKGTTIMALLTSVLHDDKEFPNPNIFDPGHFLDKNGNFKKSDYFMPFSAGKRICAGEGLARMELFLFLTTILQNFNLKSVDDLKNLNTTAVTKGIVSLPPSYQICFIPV
Protocol: Inhibition of the P450 isoforms was measured in specific assays using specific substrates that become fluorescent upon CYP metabolism. Compounds, dissolved in ACN (acetonitrile) (CYP2E1, CYP2C8, CYP2B6, CYP3A5) or DMSO (all remaining isoforms), were tested in duplicate (n=2) in concentration-response curves (eight concentrations) in a 96-well plate containing incubation/NADPH regenerating buffer. Specific isoenzymes and substrates were added and incubated at 37° C. Reactions were terminated at different times, depending on the assays, and plates read on a Fluoroskan Ascent at the appropriate emission/excitation wavelengths. Concentration-response curves performed in duplicate for known inhibitors for each isoenzyme were tested in every assay as positive control.

HLA-DR+/CD20+ B cells = assay: FACS analysis of B cell activation (CD40) in whole blood; type: cell-based, human; details: 24 hours, 2 and 10 uM, three donors
Protocol: A flow cytometric analysis was performed on whole blood from three donors after treatment with two compound concentrations for 24 h. The FACS analysis for donor 1 and donor 2 was made on another day than donor 3. The compound concentrations were as follows:
B cell activation: 2 and 10 uM
The FACS analysis was used to identify whether the test compounds could induce activation of B cells, and two different subsets of dendritic cells, namely the myeloid CD11c+/CD123− DCs and the plasmacytoid CD11c−/CD123+ DCs. The following markers were studied to identify the activation status of the different subsets:
The FACS staining was performed according to the manufacturer's instructions. Lysis of red blood cells was performed before FACS staining in order to minimize auto-florescence. To include as many B cells and DCs in the study as possible the FACS analyses were performed on 500,000 cells in total for each staining. A P1 gate was set only to include relevant cells on FSC vs. SSC (see FIGS. 12-15). The results of the individual analysis were present as Mean Fluorescence Intensity
The analysis of expression of the activation marker CD40 on B cells was made on double positive HLA-DR (MHC class II) (P4 gate) and CD20 cells (B cell marker) (P8 gate).

[4] = Intravenous pharmacokinetics in the mouse; details: for Plasma concentration Mean ± S.D.: 1 mg/kg IV
Protocol: An IV bolus was administered into the caudal vein at a dose of 1 mg/kg in […]. The compound weight was 2.08/10.04 ml. 24 mice were studied. […] […] Animals were sacrificed using ethyl ether at the conclusion of the experiment.
Sample preparation: In a Sirocco filter plate, 100 microliters of plasma were added to 300 microliters of ACN/MeOH spiked with 5 microliters of IS (IV298 10 micrograms per ml) plus 10 microliters of 5% H3PO4. The plate was shaken for 10 minutes at 80 rpm and then filtered under vacuum for 5 minutes.
Analytical method: LC/MS/MS: Premiere XE, Eluent: water (A) MeOH(B) plus 0.1% HCOOH gradient. 15% B to 100% B from 0.1 to 0.5, then isocratic 100% B up to 1.5 minutes, flow 0.8 ml/min; Column Acquity UPLC BEH C18 1.7 microm 2.1×50 mm, injection volume of 5 microliters in a T column at 50° C. ESI positive, MRM, Extractor 5V; Capillary 3.5 kV; T source 115° C.; T desolv. 450° C.
Data analysis: Non-compartmental analysis WinNonlin 5.1; linear trapezoidal, uniform weight.

[5] = Stability of solid samples with respect to heat (80° C.), HPLC; type: physicochemical
Protocol: Solid samples of each compound were maintained at 80° C. and analyzed by HPLC.

[6] = system: receptors associated with pain-related syndromes (e.g. adenosine and sodium channel); assay: Radioligand binding assay among 73 primary molecular targets; details: SC12 at fixed concentration of 30 microM
[7] = system: Salmonella typhimurium TA1535, TA1537, TA98, TA100; assay: Bacterial mutation assay, Salmonella typhimurium; details: absence or presence of S9 metabolism
Protocol: as §1

[8] = day 12, group 1 Imiquimod 0.1%, group 2 SC12 0.38%

## CCCCCCCCCCCC(=O)OCC(COP(=O)(O)OCCNC(=O)c1ccc(Cn2c(=O)[nH]c3c(N)nc(OCCOC)nc32)cc1)OC(=O)CCCCCCCCCCC (stereo not drawn) [SC12]
[1]; day 12
  Number of rats with a tumor positive bladder: 8 of 14
[1]; [8]
  Rats with pT2 Tumor, number (% of 14): 7 (50.0%)
  Tumor free rats, number (% of 14): 6 (42.9%)
[1]; day 12, group 2 SC12 0.38%
  Rats with pTa Tumor, number (% of 14): 1 (7.1%)
[1]; day 12, intravesical 0.5 ml on day 2 and 5, group 1 Imiquimod 0.1%, group 2 SC12 0.38%
  Mean weight of the rat bladders: 0.1014 grams
[1]; group 1 Imiquimod 0.1%, group 2 SC12 0.38%
  Mean number of tumors per rat bladder: 1.36
[1]; tumor positive bladders, group 1 Imiquimod 0.1%, group 2 SC12 0.38%
  Mean invasion depth: 1.4250 mm
[2]; read-out: EC 50 IL 6
  pEC50: 7.38
[2]; read-out: EC 50 TNF-alpha
  pEC50: 7.39
Human PBMCs; Donor 1, listed as SC12 new 20288
  pEC50: 5.73
Human PBMCs; Donor 1, listed as SC12 old CH730/2/13D
  pEC50: 5.70
Human PBMCs; Donor 2, listed as SC12 new 20288
  pEC50: 6.02
Human PBMCs; Donor 2, listed as SC12 old CH730/2/13D
  pEC50: 5.99
[3]; 50.0-5000 micrograms/plate
  Toxicity to tester strains: No toxicity was observed
[3]; up to 5000 micrograms/plate
  Reverse mutation: does not induce reverse mutation
CYP2C8
  pIC50: < 4.00
HLA-DR+/CD20+ B cells
  CD40 expression (MFI) on B cells: induced CD40 expression in donor 1 and donor 2 in all tested concentrations
[4]; 1 mg/kg IV bolus, plasma
  AUC INF obs: 12878 ng·min/mL
  AUClast: 11744 ng·min/mL
  C0: 2664 ng/mL
  CI: 77.7 mL/min/kg
  Clast: 6 ng/mL
  Cmax: 541 ng/mL
  MRT: 32 min
  T ½: 130 min
  Tlast: 120 min
  Tmax: 5 min
  Vss: 2.5 L/kg
[4]; 5 min
  Plasma concentration Mean ± S.D.: 540.70 ± 179.99 ng/mL
[4]; 15 min
  Plasma concentration Mean ± S.D.: 22.27 ± 3.16 ng/mL
[4]; 30 min
  Plasma concentration Mean ± S.D.: 10.00 ± 1.68 ng/mL
[4]; 60 min
  Plasma concentration Mean ± S.D.: 7.62 ± 0.72 ng/mL
[4]; 120 min
  Plasma concentration Mean ± S.D.: 6.05 ± 0.78 ng/mL
[4]; 240 min, LLOQ 5 ng/ml
  Plasma concentration Mean ± S.D.: <LLOQ
[4]; 480 min, LLOQ 5 ng/ml
  Plasma concentration Mean ± S.D.: <LLOQ
[4]; 1440 min, LLOQ 5 ng/ml
  Plasma concentration Mean ± S.D.: <LLOQ
[5]; After 2 hrs at 80° C.
  HPLC purity of solid sample: 90% HPLC
[5]; After 22 hrs at 80° C.
  HPLC purity of solid sample: 88% HPLC
[5]; t = 0
  HPLC purity of solid sample: 90% HPLC
[6]
  Binding to receptors associated with pain-related syndromes: did not bind
[7]; 50.0-5000 micrograms/plate
  Toxicity to tester strains: No toxicity was observed
[7]; up to 5000 micrograms/plate
  Reverse mutation: does not induce reverse mutation
